From patent US9714941B2, “Bio-sensing nanodevice” (Massachusetts Institute of Technology, priority 2007, dated 2017)

Columns and labels:
hOR17-4 [1] = molecular target: T1, hOR17-4 (Homo sapiens, UniProt P34982); assay: Surface plasmon resonance (Biacore A100) odorant binding assay; design: made in house; host or cells: cell-free expression, wheat germ extract (Roche RTS); uncleaned lysate supernatant captured on the chip; details: SPR
T1 sequence (P34982 1-312): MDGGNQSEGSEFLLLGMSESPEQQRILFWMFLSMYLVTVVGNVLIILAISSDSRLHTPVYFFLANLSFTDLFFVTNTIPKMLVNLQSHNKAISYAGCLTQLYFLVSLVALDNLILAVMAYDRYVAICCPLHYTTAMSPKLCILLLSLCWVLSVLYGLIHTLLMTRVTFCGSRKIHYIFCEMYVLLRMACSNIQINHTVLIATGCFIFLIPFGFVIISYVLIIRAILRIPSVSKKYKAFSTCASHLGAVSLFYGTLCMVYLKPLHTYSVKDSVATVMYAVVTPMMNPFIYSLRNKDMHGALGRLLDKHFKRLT
Protocol: All odorant binding experiments were performed on a Biacore™ A100 (GE Healthcare, Uppsala, Sweden) at 25° C. A Biacore™ A100 was used in the present studies since it has a parallel flow configuration thus allowing assay development e.g. solubilization conditions to be tested and optimized in parallel in a multiplexed format. The sensor chip CM4, amine coupling kit, HBS (10 mM Hepes, 0.15 M NaCl, pH 7.4) and PBS were from (GE Healthcare, Uppsala, Sweden).
The anti Rho-tag antibody 1D4 at 40 μg/ml in 10 mM sodium acetate pH 5.5 was immobilized onto a series S sensor chip using standard amine-coupling chemistry in HBS running buffer at 10 μl/min (33). The amount of coupled 1D4 was about 5500 RU. Control surfaces were prepared similarly without protein derivatization and utilized as a reference surfaces for compound binding experiments.
Cell-free lysate containing the expressed olfactory receptor was centrifuged for […] at 14000×g at 4° C., to remove larger particles. The supernatant, containing about 0.6 mg/ml olfactory receptor, was immediately captured on the surface plasmon resonance (SPR) chip using PBS, 0.1% CHAPS, 0.02% CHS, 0.1% DDM and 1% (v/v) ethanol as running buffer at 10 μl/min.
Fresh odorant lilial solutions were made as follows. […]

hOR17-4 [2] = molecular target: T1, hOR17-4; details: cited from earlier work
[3] = Odorant solubility in SPR running buffer, inferred from the binding response; type: physicochemical
Protocol: Fresh odorant lilial solutions were made as follows. Pure odorant was diluted in ethanol to 0.5 M. This solution was diluted 67 times in PBS, 0.1% CHAPS, 0.02% CHS, 0.1% DDM to obtain a 7.5 mM odorant solution in running buffer with 1% (v/v) ethanol. Further dilutions were made in running buffer containing 1% (v/v) ethanol to obtain a concentration series of 5 μM, 10 μM, 20 μM and 40 μM of odorant lilial.
For the actual binding measurements, the odorant concentration series were injected from low to high concentration over control and derivatized surfaces for 30 seconds with a flow rate of 60 μl/min. Zero concentration blank buffer cycles were included as negative control samples. Solvent correction procedures were included to compensate for any DMSO related bulk refractive index variations and performed as described previously^(34). Non-specific binding effects to sensor surface CM4 were absent for all analyses reported.

binding constant (approximately estimated) (hOR17-4 [1]; exact value could not be determined because of low solubility): within micromolar range
solubility at high concentrations ([3]; SPR running buffer): very low
concentration above which the response does not reach equilibrium (odorant starts to fall out of solution) ([3]; running buffer PBS, 0.1% CHAPS, 0.02% CHS, 0.1% DDM, 1% (v/v) ethanol): above 10 μM
SMILES: CC(C=O)Cc1ccc(C(C)(C)C)cc1 (stereo not drawn) [lilial]
dose response binding (RU) (hOR17-4 [1]; lilial 5-40 μM, 25° C., receptor from cell-free production captured via 1D4 antibody): binding response increases by increasing odorant concentration
agonist activity at hOR17-4 (hOR17-4 [2]; in vivo studies): known agonist
affinity constant reported in vivo (hOR17-4 [2]; in vivo): micromolar range
